Data published in patent US11999794B2, “Human mesothelin chimeric antigen receptors and uses thereof” (Novartis AG, priority 2013, dated 2024).
Marks after values point to notes of the source that are not given here.

What was measured:
[1] = Questionnaires on energy and exercise one year after dosing; assay type: in vivo, human; details: 0.5 mg daily cohort
[2] = system: A/H1N1 strain A/New Jersey/8/76 and A/H3N2 strain A/Victoria/361/11; design: species or system human; details: in vivo
B/Brisbane/60/2008 = assay: Hemagglutination inhibition titers and seroconversion; assay type: in vivo, human; details: for Percent of subjects with seroconversion to influenza 4 weeks after vaccination: B; for GMT ratio, B: GMT at week 4 post vaccination/GMT at baseline
Method: (§1) The trial was observer-blind because the placebo in the RAD001 0.5 mg daily and 20 mg weekly cohorts differed slightly from the RAD001 tablets in those cohorts. […] The treatment duration for all cohorts was 6 weeks during which time subjects underwent safety evaluations in the clinic every 2 weeks. After subjects had been dosed for 4 weeks, RAD001 steady state levels were measured pre-dose and at one hour post dose. After completing the 6 week course of study drug, subjects were given a 2 week drug free break to reverse any possible RAD001-induced immunosuppression, and then were given a 2012 seasonal influenza vaccination (Agrippal®, Novartis Vaccines and Diagnostics, Siena, Italy) containing the strains H1N1 A/California/07/2009, H3N2 A/Victoria/210/2009, B/Brisbane/60/2008. Four weeks after influenza vaccination, subjects had serum collected for influenza titer measurements. Antibody titers to the 3 influenza vaccine strains as well as to 2 heterologous strains (A/H1N1 strain A/New Jersey/8/76 and A/H3N2 strain A/Victoria/361/11) were measured by standard hemagglutination inhibition assay (Kendal, A P et al. (1982) Concepts and procedures for laboratory-based influenza surveillance. Atlanta: Centers for Disease Control and Prevention B17-B35). Levels of IgG and IgM specific for the A/H1N1/California/07/2009 were measured in serum samples taken before and 4 weeks after influenza vaccination as described previously (Spensieri, F. et al. (2013) Proc. Natl. Acad. Sci. USA 110:14330-14335). Results were expressed as fluorescence intensity.
(§2) The ability of RAD001 to improve immune function in elderly volunteers was evaluated by measuring the serologic response to the 2012 seasonal influenza vaccine. The hemagglutination inhibition (HI) geometric mean titers (GMT) to each of the 3 influenza vaccine strains at baseline and 4 weeks after influenza vaccination are provided in Table 10. The primary analysis variable was the HI GMT ratio (4 weeks post vaccination/baseline). […] This endpoint was chosen because a 1.2-fold increase in the influenza GMT ratio induced by the MF-59 vaccine adjuvant was associated with a decrease in influenza illness (Iob, A et al. (2005) Epidemiol Infect 133:687-693).
(§3) Rates of seroconversion 4 weeks after influenza vaccination were also evaluated. Seroconversion was defined as the change from a negative pre-vaccination titer (i.e., HI titer <1:10) to post-vaccination HI titer ≥1:40 or at least 4-fold increase from a non-negative (≥1:10) pre-vaccination HI titer.

[3] = system: H1N1 A/California/07/2009; assay: as above; assay type: in vivo, human; details: for Percent of subjects with seroconversion to influenza 4 weeks after vaccination: H1N1; for GMT ratio, A/H1N1: GMT at week 4 post vaccination/GMT at baseline
Method: as §1, §2, §3

H3N2 A/Victoria/210/2009 = assay: as above; assay type: in vivo, human; details: for Percent of subjects with seroconversion to influenza 4 weeks after vaccination: H3N2; for GMT ratio, A/H3N2: GMT at week 4 post vaccination/GMT at baseline
Method: as §1, §2, §3

[4] = Size exclusion chromatography (oligomerization state of expressed scFvs); assay type: physicochemical; details: purified scFv
Method: Size exclusion chromatography was performed to determine the oligomerization states of the expressed scFvs. 25 μg each was injected onto a TSKGel Super SW3000 4.6 mm×300 mm column (Tosoh Bioscience) heated to 35° C. The scFvs were eluted at 0.3 mL/min in 750 mM arginine, 1 mM EDTA, 20 mM sodium phosphate, 250 mM sodium chloride, pH 7.2; the UV absorbance was monitored at 280 nm.

[5] = Intention to Treat Population, 0.5 mg, N = 48
[6] = Intention to Treat Population, 5 mg, N = 49
[7] = Intention to Treat Population, 20 mg, N = 48
[8] = Subjects with Baseline Titers <=40, 0.5 mg
[9] = Subjects with Baseline Titers <=40, 5 mg
[10] = Subjects with Baseline Titers <=40, 20 mg

## CO[C@H]1C[C@@H]2CC[C@@H](C)[C@@](O)(O2)C(=O)C(=O)N2CCCC[C@H]2C(=O)O[C@H]([C@H](C)C[C@@H]2CC[C@@H](OCCO)[C@H](OC)C2)CC(=O)[C@H](C)/C=C(\C)[C@@H](O)[C@@H](OC)C(=O)[C@H](C)C[C@H](C)/C=C/C=C/C=C/1C [RAD001, (1R,9S,12S,15R,16E,18R,19R,21R,23 S,24E,26E,28E,30S,32S,35R)-1,18-dihydroxy-12-{(1R)-2-[(1 S,3R,4R)-4-(2-hydroxyethoxy)-3-methoxycyclohexyl]-1-methylethyl}-19,30-dimethoxy-15,17,21,23,29,35-hexamethyl-11,36-dioxa-4-aza-tricyclo[30.3.1.04,9]hexatriaconta-16,24,26,28-tetraene-2,3,10,14,20-pentaone]
[1]
  energy and exercise ability: increased energy and exercise ability as compared to placebo
[2]
  increase in HI GMT ratios for the heterologous strains: higher in the RAD001 as compared to placebo cohorts
  seroconversion rates for the heterologous strains: higher in the RAD001 as compared to placebo cohorts
B/Brisbane/60/2008; [5]
  Percent of subjects with seroconversion to influenza 4 weeks after vaccination: 27%
B/Brisbane/60/2008; [6]
  Percent of subjects with seroconversion to influenza 4 weeks after vaccination: 22%
B/Brisbane/60/2008; [7]
  Percent of subjects with seroconversion to influenza 4 weeks after vaccination: 19%
B/Brisbane/60/2008; [8]
  Percent of subjects with seroconversion to influenza 4 weeks after vaccination: 40* %
B/Brisbane/60/2008; [9]
  Percent of subjects with seroconversion to influenza 4 weeks after vaccination: 33%
B/Brisbane/60/2008; [10]
  Percent of subjects with seroconversion to influenza 4 weeks after vaccination: 28%
B/Brisbane/60/2008; RAD001 5 mg weekly, N = 49
  GMT ratio, B: 2.2
B/Brisbane/60/2008; RAD001 20 mg weekly, N = 49
  GMT ratio, B: 2.1
[3]; [5]
  Percent of subjects with seroconversion to influenza 4 weeks after vaccination: 27%
[3]; [6]
  Percent of subjects with seroconversion to influenza 4 weeks after vaccination: 27%
[3]; [7]
  Percent of subjects with seroconversion to influenza 4 weeks after vaccination: 17%
[3]; [8]
  Percent of subjects with seroconversion to influenza 4 weeks after vaccination: 42%
[3]; [9]
  Percent of subjects with seroconversion to influenza 4 weeks after vaccination: 45%
[3]; [10]
  Percent of subjects with seroconversion to influenza 4 weeks after vaccination: 36%
[3]; RAD001 5 mg weekly, N = 49
  GMT ratio, A/H1N1: 2.5
[3]; RAD001 20 mg weekly, N = 49
  GMT ratio, A/H1N1: 1.8
H3N2 A/Victoria/210/2009; [5]
  Percent of subjects with seroconversion to influenza 4 weeks after vaccination: 27%
H3N2 A/Victoria/210/2009; [6]
  Percent of subjects with seroconversion to influenza 4 weeks after vaccination: 24%
H3N2 A/Victoria/210/2009; [7]
  Percent of subjects with seroconversion to influenza 4 weeks after vaccination: 25%
H3N2 A/Victoria/210/2009; [8]
  Percent of subjects with seroconversion to influenza 4 weeks after vaccination: 64%
H3N2 A/Victoria/210/2009; [9]
  Percent of subjects with seroconversion to influenza 4 weeks after vaccination: 53%
H3N2 A/Victoria/210/2009; [10]
  Percent of subjects with seroconversion to influenza 4 weeks after vaccination: 71%
H3N2 A/Victoria/210/2009; RAD001 5 mg weekly, N = 49
  GMT ratio, A/H3N2: 2.0
H3N2 A/Victoria/210/2009; RAD001 20 mg weekly, N = 49
  GMT ratio, A/H3N2: 2.1

B1: M5: human anti-mesothelin scFv SEQ ID NO: 43; full CAR SEQ ID NO: 67 (protein)
scFv: QVQLVQSGAEVEKPGASVKVSCKASGYTFTDYYMHWVRQAPGQGLEWMGWINPNSGGTNYAQKFQGRVTMTRDTSISTAYMELSRLRSDDTAVYYCASGWDFDYWGQGTLVTVSSGGGGSGGGGSGGGGSGGGGSDIVMTQSPSSLSASVGDRVTITCRASQSIRYYLSWYQQKPGKAPKLLIYTASILQNGVPSRFSGSGSGTDFTLTISSLQPEDFATYYCLQTYTTPDFGPGTKVEIK
[4]
  % Monomer (SEC): 82%
